Measurements reported in patent publication US8716355B2, “Hydroxylated tolans and related compounds in the treatment of a cancer” (Kent State University, priority 2007, dated 2014).
Read-outs that look alike come from different tables or passages of the source.

Legend:
T24 = test: MTT cytotoxicity, T24 bladder cancer cells; type: cell-based, human; conditions: Homo sapiens, VC:KST-201 200:1, read-out: CD50 (μM) of each Compound tested in combination, T24
Protocol: (§1) As a first step, the antitumor activity of the tolans was assessed against a panel of three cancer cells lines that produce solid tumors upon implantation into animals. DU145 is an androgen-independent prostate cancer cells. T24 is a transitional cell bladder carcinoma cell. MDAH2274 (“MDAH) is an endometroid ovarian adenocarcinoma cell. To assess the selectivity of this antitumor activity, the toxicity of the tolans to normal human fibroblasts (MHRF) was examined.
Cell killing was evaluated using the colorimetric MTT assay. The assay measures the formation of a colored product from a chromogenic precursor, the tetrazole 3-[4,5-dimethylthiazol-2-yl]-2,5 diphenyltetrazolium bromide (MTT). The yellow MTT is reduced to purple formazan in the mitochondria of living cells. A solubilization solution (typically dimethyl sulfoxide or sodium dodecyl sulfate in dilute hydrochloric acid) is added to dissolve the insoluble purple formazan product into a colored solution. The absorbance of this colored solution is quantified by measuring at a certain wavelength (usually between 500 and 600 nm) by a spectrophotometer. […] This MTT assay is used widely to assess the cytotoxicity and selectivity of compounds such as anti-cancer drugs. The assay is suitable for rapid toxicity characterization of a test agent such as a drug formulation. […] A lower CD50 indicates a greater cytotoxic activity (as a lower amount of the agent is needed to achieve a fixed level of cytotoxicity). Two agents can be compared by examining the fold-increase or decrease in their CD50 values. […]

MDAH2274 = test: MTT cytotoxicity, MDAH2274 ovarian cancer cells; type: cell-based, human; conditions: Homo sapiens
Protocol: as §1
Cell killing was evaluated using the colorimetric MTT assay. The assay measures the formation of a colored product from a chromogenic precursor, the tetrazole 3-[4,5-dimethylthiazol-2-yl]-2,5 diphenyltetrazolium bromide (MTT). The yellow MTT is reduced to purple formazan in the mitochondria of living cells. A solubilization solution (typically dimethyl sulfoxide or sodium dodecyl sulfate in dilute hydrochloric acid) is added to dissolve the insoluble purple formazan product into a colored solution. The absorbance of this colored solution is quantified by measuring at a certain wavelength (usually between 500 and 600 nm) by a spectrophotometer. […] This MTT assay is used widely to assess the cytotoxicity and selectivity of compounds such as anti-cancer drugs. The assay is suitable for rapid toxicity characterization of a test agent such as a drug formulation. […] A lower CD50 indicates a greater cytotoxic activity (as a lower amount of the agent is needed to achieve a fixed level of cytotoxicity). Two agents can be compared by examining the fold-increase or decrease in their CD50 values.

terminal cancer = conditions: cited from earlier work
advanced cancer = conditions: 10 g oral VC, randomized placebo-controlled trials; cited from earlier work
[1] = mice; 6.5 g/Kg daily for 6 weeks and 2 g/Kg for 2 years; cited from earlier work
Vero cells = test: Cytotoxicity (CD50) on Vero cells; type: cell-based; conditions: 48 hours of exposure
Description: See Example II for tumor cell cytotoxicity of these compounds. […] NAB group 32 contains two compounds, Tolan-2 (also designated herein as KST-201) and Stil-2. Based on the NAB, they were classified as topological isomers. However, chemically they differ because Stil-2, a […], contained a double bonded linker, while Tolan-2 contained a triple bonded linker. The cytotoxicity of the two molecules on Vero cells differed markedly: Tolan-2 was less toxic than Stil-2.

HSV-1 [2] = test: HSV-1 replication in infected Vero cells (plaque assay); type: cell-based, Herpes Simplex Virus-Type 1
Protocol: For this purpose HSV-1 replication at 24, 48 and 72 h was examined in the presence or absence of varying concentrations of the polyphenol.
The SI is the ratio of the CD50 divided by a selected inhibitory concentration (IC %).
Viral inhibition by Tolan-3 appeared to occur after viral entry into cells. […] Subsequently, the compound was removed and replaced with culture medium alone, and the incubated continued for 48 or 72 more hrs. In a second experiment, HSV-1 infected Vero cells were incubated with 350 μM Tolan-3 for 48 h. Thereafter, the Tolan-3 was removed and replaced by medium and the incubation continued for an additional 24 h. Viral titers were calculated by a standard plaque assay.

HSV-1 [3] = test: Direct inactivation, attachment and penetration of HSV-1; type: cell-based, Herpes Simplex Virus-Type 1
Protocol: To determine whether Tolan-3 directly inactivated the virus, Tolan-3 was incubated with HSV-1 at room temperature for 1, 30 or 60 minutes while controls were also incubated with HSV-1 at room temperature without Tolan-3. The treated or control virus was plated onto Vero cells.

HSV-1 [4] = test system: HSV-1
Description: FIG. 2. […] A 10% w/v solution of KST-301 in DMSO was applied topically to the epidermal infection site 3×/day for 5 days. Controls animals received the same volume of the DMSO vehicle at the same intervals. Lesions were scored as 0=no visible lesions, +1=papules around the infection site, +2=papules are ulcerated around the infection site with eschar formation, +3=ulcerated zosteriform spread along peripheral nerves to the flank of the animal, +4=ulcerated lesions open on the flank, and +5=death of the animal.
The lesions were scored as in the description for FIG. 2.

Mushroom tyrosinase = test: Inhibition of mushroom tyrosinase activity; type: biochemical; conditions: concentration not given
Protocol: All chemical used for reagents were purchased from Sigma Chemical Company. KST201 at each tested concentration (1000, 250 and 100 μM) was dissolved in 10% ethanol from a master mixture of the drug prepared at 0.1M in 100% ethanol.
Mushroom tyrosinase (Sigma) was diluted in 50 mM phosphate buffer, pH 6.5 to yield a concentration of 16 U/μl. […] A master mix containing 0.5 mM L-DOPA [3,4-dihydroxy-1-phenylalanine], 10 mM Sodium L-tyrosine in 50 mM phosphate buffer, pH 6.5 was prepared. The KST-201 dilutions were preincubated with the enzyme for 20 minutes. The samples were pipetted into 24 well plates and the master mixture added quickly. The reaction was read using a kinetic format in which wells were read every 30 seconds over a course of 10 minutes at a wavelength of 475 nm using a Synergy HT Plate reader. A kinetic curve was generated for each sample compared to a total reaction with mushroom tyrosinase without a drug (total).

prostate cancer = test: Prostate cancer patients (Example VIII A); type: in vivo, human; conditions: daily 10 μg to 5 mg/Kg; no significant differences between the four groups
Protocol: A group of 40 men aged 55-75 suffering from prostate cancer receive a daily dosage of between 10 μg and 5 mg/Kg body weight of KST-201, KST-213, KST-301 or KST-401 (10 patients per compound). Examination of the patients by clinical, radiographic and histopathological tests show significant shrinkage in tumors, and signs of cell death in 38% of the patients; there are no significant differences between the four treatment groups.

bladder cancer = test: Bladder cancer patients (Example VIII B); type: in vivo, human; conditions: intravenous 10 μg to 5 mg/kg over three months
Protocol: A group of 20 men and 20 women aged 50-75 with bladder cancer are treated by intravenous injection of between 10 μg and 5 mg/kg of KST-201, KST-213, KST-301 or KST-401. Each compound is given to a group of 5 men and 5 women) over a period of three months. Clinical, radiographic and histopathological tests show significant remission in 35% of patients, accompanied by signs of cell death in 45%. There are no significant differences between the results with the four compounds.

breast cancer = test: Breast cancer prevention, skin patch (Example VIII C); type: in vivo, human; conditions: transdermal patch 10 mg to 100 mg daily, one-year study
Protocol: This study investigates whether KST-201, KST-213, KST-301 and KST-401 administered transdermally each day through a skin patch aid in preventing breast cancer or metastatic cancer following cancer therapy. Patches are prepared with a lipophilic carrier which is readily absorbed through the skin (glycerol cold cream containing glycerin and peanut oil). The HT compound is mixed with the lipophilic cream such that each patch comprises 10 mg to 100 mg of active compound. The patch is applied to the skin each day, and rapid absorption occurs. After two hours, the patch is removed.

ovarian cancer = test: Ovarian cancer patients (Example VIII D); type: in vivo, human; conditions: daily gelatin capsule 200 mg
Protocol: A study is carried out in a group of 40 women with ovarian cancer of various grades to determine the effect of treatment with compounds of KST-201, KST-213, KST-301 and KST-401. The administration protocol involves daily administration of a gelatin capsule containing 200 mg of active compound.

colon cancer = test: Colon cancer patients (Example VIII E); type: in vivo, human
Protocol: Eight patients suffering from advanced colon cancer are treated daily for three weeks with an intravenous infusion of 2 g of the compounds KST-201, KST-213, KST-301 or KST-401 dissolved in saline. Two patients are assigned to each compound. The compounds are dissolved in sterile saline. […] Progression of the tumor is also arrested over the treatment period.
Another eight patients with terminal colon cancer are treated by daily bolus injections (intravenous or intramuscular) of 2 g of KST-201, KST-213, KST-301 or KST-401.

[5] = intravenous infusion 2 g daily for three weeks

## O=C1O[C@H]([C@@H](O)CO)C([O-])=C1O.[Na+] [VC, sodium ascorbate, reference compound]
T24; T-24, 24 h, 1 day
  IC50: 638 µM
T24; T-24, 48 h, 2 days
  IC50: 634 µM
MDAH2274; 24 h, MTT, 1 day incubation, read-out: CD50 against MDAH, compound tested individually
  IC50: 937 µM
MDAH2274; 24 h, VC:KST-201 400:1, 1 day, read-out: CD50 (μM) of each Compound tested in combination, MDAH 2274
  IC50: 466 µM
MDAH2274; 48 h, MTT, 2 days incubation, read-out: CD50 against MDAH, compound tested individually
  IC50: 900 ± 46.7 µM
MDAH2274; 48 h, VC:KST-201 400:1, 2 days, read-out: CD50 (μM) of each Compound tested in combination, MDAH 2274
  IC50: 389 ± 9.6 µM
MDAH2274; 72 h, MTT, 3 days incubation, read-out: CD50 against MDAH, compound tested individually
  IC50: 879 µM
MDAH2274; 72 h, VC:KST-201 400:1, 3 days, read-out: CD50 (μM) of each Compound tested in combination, MDAH 2274
  IC50: 393 µM
Terminal cancer; 100 terminal cancer patients, 10 g/day i.v. 10 days then oral, controls 50 days
  Mean survival time (MST): > 210 days
Terminal cancer; 100 terminal cancer patients
  MST, times greater than that of the controls: more than 4.2 times
Terminal cancer; six ovarian cancer subjects, controls 71 days
  MST of subjects with ovarian cancer: 148 days
Advanced cancer
  Benefit of oral VC treatment: no benefits of oral VC treatment
[1]
  Mortality, weight changes, blood chemistry, hematology, histology, other pathologies: no abnormal rates of mortality

## Oc1ccc(C#Cc2cc(O)cc(O)c2)cc1 [KST-301, 3,4′,5-trihydroxytolan]
Vero cells
  CD50: 350 µM
  Log CD50: 2.54
HSV-1 [2]; 350 μM, removed as late as 48 hours post infection
  Reversibility of HSV-1 inhibition after removal of compound: HSV-1 replication recovered
HSV-1 [2]; 48 h post-infection
  SI50 (selectivity index, CD50 divided by IC50): > 63
HSV-1 [2]; Human alphaherpesvirus 1, Vero, read-out: IC50, concentration at which 50% of HSV-1 replication was inhibited, viral assays at lower compound concentrations
  IC50: 6.37 µM
HSV-1 [2]; at CD50, 75% and 50% of CD50, 24, 48, 72 h
  Effect on HSV-1 viral replication in Vero cells (in words): significant anti-HSV activity
HSV-1 [3]
  Inhibition of HSV-1 attachment or penetration: did not inhibit HSV-1 attachment or penetration
HSV-1 [3]; incubated with HSV-1 at room temperature 1, 30 or 60 minutes
  Direct inactivation of HSV-1: did not directly inactivate HSV-1
HSV-1 [4]; 5% w/v solution, topical, hairless mice
  Number and severity of HSV lesions: significantly reduced the number and severity of HSV lesions
HSV-1 [4]; 10% w/v solution in DMSO, topical 3×/day for 5 days, hairless mice
  Severity of HSV-1 lesions: significantly reduced
HSV-1 [4]; topical solution in DMSO
  Treated animals in which lesion formation was prevented: 67%
HSV-1 [4]; topical solution in DMSO, controls 83-100%
  Treated animals showing evidence of HSV infection: 33%
HSV-1 [4]; topical solution in DMSO, scale 0 to +5, controls 3.8-4 by days 8 and 9
  Maximum (average) lesion score: 0.8-1.2
HSV-1 [4]; topical, hairless mice
  Dermal toxicity (erythema, scaling, crusting, lichenification, excoriation): no apparent dermal toxicity
Mushroom tyrosinase
  % inhibition of mushroom tyrosinase activity: 40.1±9.9%
Prostate cancer
  Patients with significant shrinkage in tumors, and signs of cell death: 38%
Bladder cancer
  Patients with signs of cell death: 45%
Bladder cancer; no differences between compounds
  Patients with significant remission: 35%
Breast cancer
  Breast cancer or metastatic cancer in high-risk group: does not show any evidence of breast cancer or other metastatic cancer
Ovarian cancer
  Rate of production of ovarian cancer markers (Muc-1, Sp17): significant decrease
  Tumor growth during study period: Tumors regress or show no further growth
Colon cancer; daily bolus injections (intravenous or intramuscular) of 2 g
  Dissemination of the tumors: dissemination of the tumors is diminished
Colon cancer; [5]
  Cancer marker carcinoembryonic antigen (CEA): significant reduction
  Progression of the tumor: arrested
